Test results reported in patent US20150208654A1, “SEED COATING METHODS AND COMPOSITIONS WITH A RYANODINE RECEPTOR BINDING AGENT” (PIONEER HI-BRED INTERNATIONAL, INC., priority 2012, published 2015).

Tests used:
Format in all cases: in vivo
[1] = tested on: velvetbean caterpillar (VBC) (Anticarsia gemmatalis); experiment: Laboratory-field leaf bio-assay (LBF) on leaves of soybean plants grown from treated seeds; details: seed treatment 120 ug ai/seed, 2nd instar larvae
Experimental: Soybean seeds were treated with chlorantraniliprole at rates of 120 ug ai/seed. The seeds were sown into soil bed fields with a size of 6 meters in length and 4 rows of 40 cm in width. Leaf samples were collected at the 3rd to the 7th soybean trifoliate growth stage and brought to the laboratory. Laboratory-field leaf bio-assay (LBF) was performed for each soybean growth stage using velvetbean caterpillar (VBC) (Anticarsia gemmatalis) exposing the leaves to 2nd instar larvae stage. Each treatment group was replicated 4 times, and results (Table 2) are expressed as % larval mortality. At 43 days after planting, the VBC larval mortality rate was 88%.

[2] = tested on: velvetbean caterpillar (VBC) (Anticarsia gemmatalis); experiment: Field plot larvae count on soybean grown from treated seeds (area 2); details: 100 ug ai/seed, compared to untreated
Experimental: (§1) Soybean seeds were treated with chlorantraniliprole at rate of 100 ug ai/seed. The seeds were sown into soil bed fields (area 2) with a size of 8 meters by 8 meters in size, with an area of 64 m2. Plots were replicated 4 times. Evaluation was based on the total number of velvetbean caterpillar (VBC) (Anticarsia gemmatalis) larvae per meter at 37 to 63 days after planting (DAP), and converted to % larvae count reduction compared to the untreated.

[3] = tested on: velvetbean caterpillar (VBC) (Anticarsia gemmatalis); experiment: Field plot larvae count on soybean grown from treated seeds (area 1); details: 100 ug ai/seed, compared to untreated
Experimental: as §1, with “1)” for “2)”, “untreated (Table 3). 50 days after planting, the VBC larvae reduction was still 73%, and after 63 days had activity at 35%.” for “untreated.”

For CNC(=O)c1cc(Cl)cc(C)c1NC(=O)c1cc(Br)nn1-c1ncccc1Cl [Chlorantraniliprole, chlorantraniliprole], the “% VBC larval mortality” value ([1]; 3rd trifoliate, 25 DAP) was 100%, the “% VBC larval mortality” value ([1]; 4th trifoliate, 29 DAP) was 94% and the “% VBC larval mortality” value ([1]; 5th trifoliate, 36 DAP) was 91%. The “% VBC larval mortality” value ([1]; 7th trifoliate, 43 DAP) was 88%, the “% VBC larvae reduction” value ([2]; 37 DAP) was 25% and the “% VBC larvae reduction” value ([2]; 50 DAP) was 20%. The “% VBC larvae reduction” value ([2]; 63 DAP) was 43%, the “% VBC larvae reduction” value ([3]; 37 DAP) was 20% and the “% VBC larvae reduction” value ([3]; 50 DAP) was 73%. For the same molecule, the “% VBC larvae reduction” value ([3]; 63 DAP) was 35%.
